Values of other authors as cited in patent US20030187074A1, “Oral compositions for treatment of diabetes” (priority 2002, published 2003).

Conditions: Physician's Desk Reference, 2001, page 2980

half-life of elimination from the human body: 3 to 4 h
Structure (SMILES): CN(CCOc1ccc(CC2SC(=O)NC2=O)cc1)c1ccccn1 (stereo not shown) [rosiglitazone]
